# From US5300629A, “Bactericidal and/or bacteriostatic peptides isolated from hemolymph of honeybees” (Plant Genetic Systems, N.V., priority 1987, dated 1994)
# Where a SMILES comes first, the peptide text is derived from it.
# Tested on: Corynebacterium insidiosum NCPPB 1109
# Assay: Minimal inhibitory concentration in liquid culture
# Assay type: cell-based
# Details: 200 μl rich medium, 10^4 log-phase bacteria
# Procedure: In addition the exact concentration was determined precisely by amino-acid analysis and an equal sample of natural Bee 6b was prepared, allowing to compare the bactericidal activity of both natural and synthetic apidaecins by means of growth inhibition assays in liquid cultures (see mat & Meth.). The minimal inhibitory concentrations (μg/ml) were determined in liquid culture : 200 μl of a rich medium (trypticase soy broth or nutrient broth) was inoculated with 10^4 log-phase bacteria. Peptide concentrations ranged between 0 and 200 μg/ml. The values express μg/ml; when no inhibition was noticed the maximal values are given (+200 μg/ml or +50 μg/ml). All peptides were chemically synthesized, except for bee 6b which is purified from bee lymph.
smiles,measurement,value
CC[C@H](C)[C@H](NC(=O)[C@H](Cc1ccc(O)cc1)NC(=O)[C@@H](NC(=O)[C@@H]1CCCN1C(=O)[C@H](CCCNC(=N)N)NC(=O)[C@H](CC(N)=O)NC(=O)[C@H](CC(N)=O)NC(=O)CN)C(C)C)C(=O)N[C@@H](CCC(N)=O)C(=O)N1CCC[C@H]1C(=O)N[C@@H](CCCNC(=N)N)C(=O)N1CCC[C@H]1C(=O)N1CCC[C@H]1C(=O)N[C@@H](Cc1c[nH]cn1)C(=O)N1CCC[C@H]1C(=O)N[C@@H](CCCNC(=N)N)C(=O)N[C@@H](CC(C)C)C(=O)O [Apid PT-1] (H-GNNRPVYIQPRPPHPRL-OH),minimal inhibitory concentration,50 µg/mL
